Experiment [1] addresses T1, TLK1 (Homo sapiens, UniProt Q9UKI8).
T1 construct: endogenous in cells; host or cells: HeLa S3
T1 sequence (Q9UKI8 1-766): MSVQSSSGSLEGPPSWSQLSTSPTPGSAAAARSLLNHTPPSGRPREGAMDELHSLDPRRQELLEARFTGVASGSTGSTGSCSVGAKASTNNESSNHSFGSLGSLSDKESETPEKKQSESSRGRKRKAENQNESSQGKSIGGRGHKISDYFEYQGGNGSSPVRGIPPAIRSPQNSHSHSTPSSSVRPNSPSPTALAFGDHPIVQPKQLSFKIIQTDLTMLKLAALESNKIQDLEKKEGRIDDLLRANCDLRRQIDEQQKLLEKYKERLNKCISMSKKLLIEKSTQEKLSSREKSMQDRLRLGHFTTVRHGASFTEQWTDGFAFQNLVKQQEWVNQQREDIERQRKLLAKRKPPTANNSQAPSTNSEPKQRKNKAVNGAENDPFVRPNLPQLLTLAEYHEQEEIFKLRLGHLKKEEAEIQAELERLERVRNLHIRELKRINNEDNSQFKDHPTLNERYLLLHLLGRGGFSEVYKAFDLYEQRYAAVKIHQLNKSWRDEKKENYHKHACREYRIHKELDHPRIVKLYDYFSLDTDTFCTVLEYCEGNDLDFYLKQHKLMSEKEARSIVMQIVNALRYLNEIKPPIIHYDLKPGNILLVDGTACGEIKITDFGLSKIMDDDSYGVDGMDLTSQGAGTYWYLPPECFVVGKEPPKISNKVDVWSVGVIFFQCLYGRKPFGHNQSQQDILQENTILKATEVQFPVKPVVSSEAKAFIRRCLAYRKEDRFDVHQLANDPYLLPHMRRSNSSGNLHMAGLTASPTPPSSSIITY
The experiment can be described thus: binding to immobilized V16742 (IVA1/IVA2, HeLa lysate, MS).

Experiment [2] addresses T2, DCI (IPI00300567) (Homo sapiens, UniProt P42126).
T2 construct: endogenous in cells; host or cells: HeLa S3
T2 sequence (P42126 42-302): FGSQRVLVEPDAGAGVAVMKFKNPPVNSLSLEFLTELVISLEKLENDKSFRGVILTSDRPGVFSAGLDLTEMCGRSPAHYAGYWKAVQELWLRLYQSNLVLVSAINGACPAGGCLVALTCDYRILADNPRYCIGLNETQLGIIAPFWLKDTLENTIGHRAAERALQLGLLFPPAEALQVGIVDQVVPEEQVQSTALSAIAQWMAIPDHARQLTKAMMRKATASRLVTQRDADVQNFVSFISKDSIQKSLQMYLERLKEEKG
The experiment is described as follows: binding to VI16742 beads (HeLa lysate, SILAC MS). The source says:
(§1) In an alternative implementation of the chemical proteomic approach according to the invention, the broadly-selective pyrido[2,3-d]pyrimidine-based kinase inhibitor VI16742 has been used for affinity capture (FIG. 10a). […] As shown by gene ontology analysis, the corresponding molecular functions were highly over-represented in proteins specifically retained by the inhibitor resin (FIG. 10b).

The target of experiment [3] is p38a (MAPK14, IPI00221141) (Homo sapiens, UniProt Q16539). The experiment can be described thus: binding to VI16742 beads (HeLa lysate, SILAC MS).
Source text: as §1

The target of experiment [4] is T3, SLK (IPI00022827) (Homo sapiens, UniProt Q9H2G2).
T3 construct: endogenous in cells; host or cells: HeLa S3
The experiment can be described thus: binding to VI16742 beads (HeLa lysate, SILAC MS).
Source text: as §1

For experiment [5], the target named is T4, MAP2K2 (IPI00003783) (Homo sapiens, UniProt P36507).
T4 construct: endogenous in cells; host or cells: HeLa S3
The experiment can be described thus: binding to VI16742 beads (HeLa lysate, SILAC MS).
Source text: as §1

Experiment [6] has as its target T5, SgK085 (MYLK3) (Homo sapiens, UniProt Q32MK0).
T5 sequence (Q32MK0 1-819): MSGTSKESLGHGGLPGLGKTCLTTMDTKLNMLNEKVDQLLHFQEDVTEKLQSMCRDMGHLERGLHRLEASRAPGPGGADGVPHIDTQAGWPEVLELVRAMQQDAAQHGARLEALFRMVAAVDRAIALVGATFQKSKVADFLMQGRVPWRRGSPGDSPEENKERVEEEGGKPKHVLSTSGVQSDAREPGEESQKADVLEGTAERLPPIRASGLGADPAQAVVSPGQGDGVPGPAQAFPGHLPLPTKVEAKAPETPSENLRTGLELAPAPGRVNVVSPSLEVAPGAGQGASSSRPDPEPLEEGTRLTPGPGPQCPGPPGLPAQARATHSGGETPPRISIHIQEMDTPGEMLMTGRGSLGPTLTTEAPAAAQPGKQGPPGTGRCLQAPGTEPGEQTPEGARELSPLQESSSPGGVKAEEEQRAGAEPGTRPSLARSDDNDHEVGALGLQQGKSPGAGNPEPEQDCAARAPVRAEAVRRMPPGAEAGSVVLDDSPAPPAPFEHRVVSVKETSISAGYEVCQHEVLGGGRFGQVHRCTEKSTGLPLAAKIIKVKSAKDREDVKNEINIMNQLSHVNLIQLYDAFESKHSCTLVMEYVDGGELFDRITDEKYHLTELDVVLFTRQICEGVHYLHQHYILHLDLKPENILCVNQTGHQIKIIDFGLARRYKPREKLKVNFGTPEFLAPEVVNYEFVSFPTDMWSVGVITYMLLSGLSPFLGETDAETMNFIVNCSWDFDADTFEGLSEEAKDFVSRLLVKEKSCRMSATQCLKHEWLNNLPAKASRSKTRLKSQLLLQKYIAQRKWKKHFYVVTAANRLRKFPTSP

Where [7] appears, read: control beads vs first incubation.

Molecules are shown by their SMILES. Where two headings read alike, the source gives them in different places.

Data on two molecules can be found in patent US8959984B2, “Proteome-wide quantification of small molecule binding to cellular target proteins” (priority 2007, dated 2015).

The Kd is the constant that tells how readily two partners part at equilibrium. The Ki is the dissociation constant of the complex between target and ligand, obtained from inhibition or displacement. High values mean weaker binding, low ones tighter binding.

T4 sequence (P36507 whole entry): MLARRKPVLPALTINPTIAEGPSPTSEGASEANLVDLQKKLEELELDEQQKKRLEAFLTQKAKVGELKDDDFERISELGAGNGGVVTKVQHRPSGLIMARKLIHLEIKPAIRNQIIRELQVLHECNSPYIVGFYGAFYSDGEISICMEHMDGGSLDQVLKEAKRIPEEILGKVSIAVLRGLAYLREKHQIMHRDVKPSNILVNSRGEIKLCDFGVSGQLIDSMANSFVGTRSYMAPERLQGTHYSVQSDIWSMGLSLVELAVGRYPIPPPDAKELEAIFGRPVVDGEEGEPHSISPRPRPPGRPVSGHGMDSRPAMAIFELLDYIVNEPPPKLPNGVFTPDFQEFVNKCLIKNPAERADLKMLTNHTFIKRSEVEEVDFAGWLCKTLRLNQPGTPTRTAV
T3 sequence (Q9H2G2 whole entry): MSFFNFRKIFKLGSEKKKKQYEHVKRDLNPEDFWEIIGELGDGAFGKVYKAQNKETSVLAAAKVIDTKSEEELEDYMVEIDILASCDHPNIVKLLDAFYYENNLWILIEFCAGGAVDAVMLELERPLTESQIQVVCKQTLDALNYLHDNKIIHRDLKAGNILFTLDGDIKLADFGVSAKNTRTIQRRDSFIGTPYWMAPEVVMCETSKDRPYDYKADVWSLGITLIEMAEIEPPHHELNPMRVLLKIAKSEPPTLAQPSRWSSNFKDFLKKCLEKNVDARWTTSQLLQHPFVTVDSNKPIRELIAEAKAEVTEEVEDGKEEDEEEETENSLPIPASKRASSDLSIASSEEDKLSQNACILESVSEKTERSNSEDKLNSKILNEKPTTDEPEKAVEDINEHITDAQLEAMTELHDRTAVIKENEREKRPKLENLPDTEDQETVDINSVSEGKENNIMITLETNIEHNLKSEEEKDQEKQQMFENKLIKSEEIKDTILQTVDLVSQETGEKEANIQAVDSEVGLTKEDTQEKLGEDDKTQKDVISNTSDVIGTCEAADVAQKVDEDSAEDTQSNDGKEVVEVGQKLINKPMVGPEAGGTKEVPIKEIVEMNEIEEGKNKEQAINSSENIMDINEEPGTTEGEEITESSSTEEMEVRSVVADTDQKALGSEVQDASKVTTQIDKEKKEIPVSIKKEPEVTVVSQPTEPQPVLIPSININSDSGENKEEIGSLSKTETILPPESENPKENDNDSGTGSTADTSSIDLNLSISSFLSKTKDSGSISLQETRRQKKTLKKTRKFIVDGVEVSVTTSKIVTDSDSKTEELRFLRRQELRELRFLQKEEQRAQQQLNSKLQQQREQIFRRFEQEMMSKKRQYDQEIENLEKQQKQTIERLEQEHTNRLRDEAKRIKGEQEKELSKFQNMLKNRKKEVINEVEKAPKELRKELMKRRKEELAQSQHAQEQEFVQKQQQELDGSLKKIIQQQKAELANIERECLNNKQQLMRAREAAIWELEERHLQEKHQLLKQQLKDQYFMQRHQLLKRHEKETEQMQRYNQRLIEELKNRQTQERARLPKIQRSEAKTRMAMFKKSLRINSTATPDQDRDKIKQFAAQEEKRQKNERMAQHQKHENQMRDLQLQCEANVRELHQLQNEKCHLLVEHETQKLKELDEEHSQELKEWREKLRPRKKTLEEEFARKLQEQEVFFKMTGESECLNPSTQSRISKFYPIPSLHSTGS
Chain of p38a (MAPK14, IPI00221141) (Q16539 1-360 isoform Q16539-2): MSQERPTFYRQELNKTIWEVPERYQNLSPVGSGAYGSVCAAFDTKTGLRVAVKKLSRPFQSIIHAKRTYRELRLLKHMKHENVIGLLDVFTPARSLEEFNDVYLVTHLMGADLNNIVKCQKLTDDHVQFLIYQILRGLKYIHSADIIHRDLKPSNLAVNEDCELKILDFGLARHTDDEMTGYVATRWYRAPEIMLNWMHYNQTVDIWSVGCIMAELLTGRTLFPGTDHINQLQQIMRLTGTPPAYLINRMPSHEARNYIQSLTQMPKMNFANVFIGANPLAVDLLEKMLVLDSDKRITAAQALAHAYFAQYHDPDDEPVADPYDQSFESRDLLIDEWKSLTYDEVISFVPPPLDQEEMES

Turning to `CC(C)n1c(=O)ccc2cnc(Nc3ccc(OCCN)cc3)nc21` [V16742], the “Percent bound at various 16742 conc” value turned out to be 1.34% in experiment [1] (Experiment 1, 1.87 μM 16742); 2.39% in experiment [1] (Experiment 1, 8.74 μM 16742); 49.12% in experiment [1] (Experiment 1, 52 μM 16742); 0.76% in experiment [1] (Experiment 2, 1.87 μM 16742); 1.97% in experiment [1] (Experiment 2, 8.74 μM 16742); 31.56% in experiment [1] (Experiment 2, 52 μM 16742). For the same molecule, the Kd in experiment [1] (Experiment 1, read-out: Kd) turned out to be 64 µM; in experiment [1] (Experiment 2, read-out: Kd), 121 µM; in experiment [1] (average of two experiments, read-out: Kd Avg) it was 92.4 µM. The “r (3 MG/1 MG LYSATE)” value in experiment [2] (3 mg vs 1 mg lysate) is given as 3.25; in experiment [4] (3 mg vs 1 mg lysate), 3.22. Moreover, the “r (5 h/2.5 h INC. TIME)” value in experiment [2] (5 h vs 2.5 h incubation time) is 1.68; in experiment [3] (5 h vs 2.5 h incubation time) it was 2.16; in experiment [4] (5 h vs 2.5 h incubation time), 1.87; in experiment [5] (5 h vs 2.5 h incubation time) it was 2.03. Also, the “rAVERAGE (CTRL/1 INC)” value in experiment [2] (setting [7]) is 0.04; in experiment [3] (setting [7]), 0.10; in experiment [4] (setting [7]), 0.05; in experiment [5] (setting [7]), 0.03. In addition, the inhibition constant Ki in experiment [2] (immobilized VI16742) stood at 236 µM; in experiment [3] (immobilized VI16742), 92.8 µM; in experiment [4] (immobilized VI16742) it was 217 µM; in experiment [5] (immobilized VI16742), 177 µM. The “rAVERAGE (2 INC/1 INC)” value was 0.82 in experiment [2] (second vs first incubation), 0.64 in experiment [3] (second vs first incubation), 0.81 in experiment [4] (second vs first incubation) and 0.77 in experiment [5] (second vs first incubation).

Regarding `COc1cc2ncnc(Nc3ccc(F)c(Cl)c3)c2cc1OCCCN1CCOCC1` [gefitinib], in experiment [6], the “rAVERAGE (10 nM/0 nM Gef.)” value is 0.97, the “rAVERAGE (100 nM/0 nM Gef.)” value is 1.01, the “rAVERAGE (1000 nM/0 nM Gef.)” value was 0.98 and the “rAVERAGE (10000 nM/0 nM Gef.)” value came to 0.53.
